From patent US20230338362A1 (priority 2020, published 2023) come the findings set out here.

Series [1] deals with macrophages treated with SARS-CoV-2 Spike protein. The class given is cell-based, human.
The test system is the same in series [2]. The class given is cell-based, human. The source holds these as a separate data set.
Series [3] has as its system IRAK1, NF-κB, MAPKs, IRAK4 (MyD88 signaling). Description: MyD88 signaling in human macrophages. The class given is cell-based.
Series [4] relates to SARS-CoV-2. Description: SARS-CoV-2 inhibition, cell viability assay (CellTiter-Glo) in VERO-E6 cells enriched for ACE-2. The class given is cell-based.
The test system of series [5] is VERO-E6 cells enriched for angiotensin converting enzyme 2 receptor (ACE-2). As to the kind of experiment: In vitro toxicity, cell viability assay in VERO-E6 cells in the absence of virus. To be noted: Table I, positive controls; absence of SARS-CoV-2 virus.
For series [6], the system named is SARS-CoV. The class given is cell-based.
The subject of series [7] is MERS-CoV. The class given is cell-based.
Series [8] deals with common cold coronavirus. As to the kind of experiment: In vitro activity against common cold coronaviruses, methods analogous to Example 1. The class given is cell-based.
The test system of series [9] is Influenza A. As to the kind of experiment: In vitro activity against Influenza A, methods analogous to Example 1. The class given is cell-based.
Series [10] deals with Influenza B. Description: In vitro activity against Influenza B, methods analogous to Example 1. The class given is cell-based.
Setting [11] is: human macrophages, through interaction with MyD88.

Each structure is given as a SMILES string. Like-named read-outs stand apart in the source and are kept apart here. Peptide text beside a SMILES is read from it. * marks the point of attachment. Cbz = O=C(OCc1ccccc1)*; CH2F = FC*

`O=C(OC[C@H]1O[C@@H](OC(=O)c2cc(O)c(O)c(O)c2)[C@H](OC(=O)c2cc(O)c(O)c(O)c2)[C@@H](OC(=O)c2cc(O)c(O)c(O)c2)[C@@H]1OC(=O)c1cc(O)c(O)c(O)c1)c1cc(O)c(O)c(O)c1`: in [1], the anti-inflammatory cytokines result is on record as “inducing anti-inflammatory cytokines such as IL-10”; the “expression of cytokine modulators / anti-inflammatory cytokines” value was “activated expression of cytokine modulators IL-10 and IFN-γ”; the “expression of pro-inflammatory cytokines” value was “inhibited expression of pro-inflammatory cytokines IL-1α, VEGF, IL-1β, IL-2, IL-4, IL-5, IL-6, IL-8, IL-12p70, IL-13, GM-CSF, GRO, MCP-1, MIP-1α, MIP-1β, MMP-9, RANTES, and TNF-α”; the “expression of the anti-inflammatory cytokine IL-10” value is recorded as “increasing expression of the anti-inflammatory cytokine IL-10”. Further, in series [1], the multiple pro-inflammatory cytokines result was “suppressed multiple pro-inflammatory cytokines such as IL-1β, TNF-α, IL-6 IL-8, IL-12, MCP-1 and MIP-1α”; the pro-inflammatory cytokines entry was “selectively inhibited pro-inflammatory cytokine, such as IL-1α, VEGF, IL-1β, IL-2, IL-4, IL-5, IL-6, IL-8, IL-12p70, IL-13, GM-CSF, GRO, MCP-1, MIP-1α, MIP-1β, MMP-9, RANTES, and TNF-α”. Moreover, in [2], the “apoptosis by activation of caspase 3” value was “selectively induces apoptosis” and the “apoptosis by caspase 3 activation” value is “not observed to induce apoptosis”. Further, the “NF-κB translocation into the nucleus” value in [3] is “inhibited NF-κB translocation into the nucleus”. Moreover, in series [3] (setting [11]), the “activation of IRAK1, NF-κB, and MAPKs” value was “potently reduced the activation of IRAK1, NF-κB, and MAPKs”; the “expression of IRAK4” value is “increasing expression of IRAK4”.

Turning to `CC(C)C[C@H](NC(=O)OCc1ccccc1)C(=O)N[C@@H](CC(C)C)C(=O)N[C@@H](Cc1ccc(O)cc1)C(=O)CF` [Calpain Inhibitor IV, reference compound] (Cbz-Leu-Leu-Tyr-CH2F), the IC50 (in general, the point on the concentration scale where inhibition reaches its midpoint) in [4] (Table I, positive controls, VERO-E6 cells enriched for ACE-2 plus SARS-CoV-2, read-out: IC50) amounted to 0.12 µM. The cytotoxic concentration (CC50) (in general, the concentration giving 50% cytotoxicity) in [5] was greater than 7.17 µM.

Consider `CCN(CC)CCCC(C)Nc1ccnc2cc(Cl)ccc12` (stereo not drawn) [Chloroquine, chloroquine, reference compound], for which, in series [5], the CC50 is greater than 30 µM.

Turning to `CCOC(=O)[C@H]1O[C@@H]1C(=O)N[C@@H](CC(C)C)C(=O)NCCC(C)C` [E64d (aloxistatin), aloxistatin, reference compound], the CC50 in series [5] was greater than 30 µM.

Turning to `COc1cc(O)cc(O)c1C(=O)/C=C/c1ccc(O)cc1` [Helichrysetin, (E)-1-(2,4-dihydroxy-6-methoxyphenyl)-3-(4-hydroxyphenyl)prop-2-en-1-one], the IC50 in [4] (Severe acute respiratory syndrome coronavirus 2, Vero C1008, Table II, antiviral compounds, VERO-E6 cells enriched for ACE-2 plus SARS-CoV-2, read-out: IC50) turned out to be 10.4 µM. For the same molecule, in series [4] (Severe acute respiratory syndrome coronavirus 2, Vero C1008, read-out: IC50 in an in vitro inhibition assay against SARS-CoV-2), the IC50 is 10.4 µM. For the same molecule, the “activity against SARS-CoV” value in [6] was “active”. In addition, the “activity against MERS-CoV” value in series [7] is given as “active”. Also, the “activity against common cold coronavirus” value in [8] was “active”. The “activity against Influenza A” value in series [9] was “active”. In series [10], the “activity against Influenza B” value is given as “active”. Moreover, in [1], the anti-inflammatory cytokines result is on record as “inducing anti-inflammatory cytokines such as IL-10”; the “expression of cytokine modulators / anti-inflammatory cytokines” value is listed as “activated expression of cytokine modulator IL-10”; the “expression of pro-inflammatory cytokines” value was “inhibited expression of pro-inflammatory cytokines IL-1α, VEGF, IL-1β, IL-4, IL-5, IL-6, IL-8, IL-12p70, IL-13, MCP-1, MIP-1α, MIP-1β, MMP-9 and TNF-α”; the pro-inflammatory cytokines result was “selectively inhibited pro-inflammatory cytokine, such as IL-1α, VEGF, IL-1β, IL-4, IL-5, IL-6, IL-8, IL-12p70, IL-13, MCP-1, MIP-1α, MIP-1β, MMP-9 and TNF-α”. Besides, in series [2], the “apoptosis by activation of caspase 3” value was “selectively induces apoptosis” and the “apoptosis by caspase 3 activation” value is reported as “not observed to induce apoptosis”.

As for `CCN(CCO)CCCC(C)Nc1ccnc2cc(Cl)ccc12` (stereo not drawn) [Hydroxychloroquine, hydroxychloroquine, reference compound], the CC50 in series [5] was greater than 30 µM.

As to `CCC(CC)COC(=O)[C@H](C)N[P@](=O)(OC[C@H]1O[C@@](C#N)(c2ccc3c(N)ncnn23)[C@H](O)[C@@H]1O)Oc1ccccc1` [Remdesivir, remdesivir, reference compound], the CC50 in series [5] is greater than 30 µM.
